How the values were obtained:
[1] = UV/Vis absorption (λmax, ε); type: physicochemical; design: ε at λmax: unit not given beside the values
[2] = Solubility in ethanol (25° C.); type: physicochemical

UV/Vis λmax ([1]; EtOH) | ε at λmax ([1]; EtOH) | Solubility in ethanol [2] | UV/Vis λmax ([1]; Dioxan) | ε at λmax ([1]; Dioxan) | SMILES
350 nm | 39177 | 1.50% |  |  | CCCCC(CC)COc1nc(-c2ccc(O)cc2O)nc(-c2ccc(O)cc2O)n1 (stereo not drawn) [compound 102]
350 nm | 36949 | 0.08% |  |  | COc1nc(-c2ccc(O)cc2O)nc(-c2ccc(O)cc2O)n1 [compound 107]
350 nm | 36761 | 0.17% |  |  | CCOc1nc(-c2ccc(O)cc2O)nc(-c2ccc(O)cc2O)n1 [compound 108]
 |  |  | 347 nm | 37680 | COc1ccc(-c2nc(OC)nc(-c3ccc(OC)cc3O)n2)c(O)c1 [compound 112]

Second part, the compound before the results:

SMILES | UV/Vis λmax ([1]; EtOH) | ε at λmax ([1]; EtOH) | Solubility in ethanol [2] | UV/Vis λmax ([1]; Dioxan) | ε at λmax ([1]; Dioxan)
CCCCCCCCCCCCC(CCCCCCCCCC)COc1nc(-c2ccc(O)cc2O)nc(-c2ccc(O)cc2O)n1 (stereo not drawn) [compound 101] | 350 nm | 34482 |  |  | 
CCCCCCCCC(CCCCCC)COc1nc(-c2ccc(O)cc2O)nc(-c2ccc(O)cc2O)n1 (stereo not drawn) [compound 104] | 351 nm | 36148 |  |  | 
CCCCCCCCCCCCCCCCCCOc1nc(-c2ccc(O)cc2O)nc(-c2ccc(O)cc2O)n1 [compound 105] | 350 nm | 31662 |  |  | 
CCCCCCCCCCCCC(CCCCCCCCCC)COc1nc(-c2ccc(OC)cc2O)nc(-c2ccc(OC)cc2O)n1 (stereo not drawn) [compound 110] |  |  |  | 347 nm | 36219
CCCCCCCCC(CCCCCC)COc1nc(-c2ccc(OC)cc2O)nc(-c2ccc(OC)cc2O)n1 (stereo not drawn) [compound 111] | 348 nm | 34123 |  |  | 

— US6111103A, “Diresorcinyl-alkoxy- and -aryloxy-s-triazines” (Ciba Specialty Chemicals Corporation, priority 1998, dated 2000)
